# Measurements taken from patent US20250171496A1, “FUSION PEPTIDE FOR REGULATING ACTIVATION OF MAM AND USE THEREOF” (UIF (University Industry Foundation), Yonsei University, priority 2023, published 2025).
# Where no end group is shown, it is not given here.
# Columns and labels:
# Hela cells = assay: SPLICS (ER-mitochondria split-GFP) proximity assay; assay type: cell-based; settings: Hela cells transfected with SPLICS vector, 10 mM EtOH, peptide 20 μM, 1 hour, vs control (DW)
# Excerpt: To this end, MAM regulatory activity was verified using the SPLICS (ER-mitochondria split-GFP) system, which allows observation of the proximity between intracellular organelles through fluorescence emission. The SPLICS system is a system that can efficiently image the proximity of intracellular organelles based on the principle that split-GFP fluorescence is emitted when two organelles are within approximately 10 to 40 nm of each other. As the two organelles approach, complementation of GFP occurs, resulting in fluorescence at the junction. It is to be noted that increased contact between ER and mitochondria may lead to cellular stress and dysfunction.
# First, to observe the change in the distance between the ER and mitochondria due to treatment with the fusion peptides, Hela cells were transfected with the SPLICS vector. Afterwards, the HeLa cells were treated with the fusion peptides and the area (%) of GFP fluorescence relative to the total area per cell was measured. […] That is to say, it was observed from the decrease in green fluorescence in the groups treated with the fusion peptides of the present disclosure that the two organelles were moving apart from each other.
# ApoE knockout mice = assay: Atherosclerosis animal model (high-cholesterol diet, ApoE knockout mice); assay type: in vivo; settings: 50 mg/kg intraperitoneally every 2 days for 8 weeks
# Description: Animal experiment was performed in accordance with the guidelines approved by the Institutional Animal Care and Use Committee of Yonsei University (IACUC-A-202404-1847-02). 6-week-old male ApoE knockout B6.KOR/StmSlc-Apoeshl mice were housed in a specific pathogen-free system with a 12-hour light-dark cycle with free access to food and water, and randomly divided into three groups (control, positive control, and test groups). Then, the sample was injected intraperitoneally to the control group (vehicle), the positive control group (CTS (cryptotanshinone), 20 mg/kg), and the test group (peptide, 50 mg/kg) once every two days for 8 weeks while feeding the mice with a high-cholesterol diet until the end of the experiment (for 8 weeks).
# After sacrificing the mice, PBS perfusion was performed through the left ventricle, and the heart, artery, and blood were obtained. The artery was cut along the bifurcation of the iliac artery, spread out, fixed with pins, and fixed in 10% formaldehyde for 16 hours. After staining with Oil-Red-O for 16 hours, the samples were washed with PBS and images were obtained using a microscope (NS-6T, China).
# The fusion peptide 4 (50 mg/kg) was injected intraperitoneally every 2 days for 8 weeks into an animal model of atherosclerosis (high-cholesterol diet, ApoE knockout mice).
# HUVEC cells = assay: MTT assay (cell proliferation); assay type: cell-based, human; settings: 0-300 μM, up to 72 hours
# Description: Human umbilical vein endothelial cells (HUVECs) were cultured in EBM-2 medium supplemented with FBS (2%, v/v) and antibiotics. After seeding the cells in a 96-well plate at 3,000 cells/well and culturing the same, they were treated with the prepared fusion peptides on the next day at concentrations of 0, 100, 200, and 300 μM. After 0, 24, 48, and 72 hours, MTT solution (2 mg/mL) was treated at a concentration of 0.4 mg/mL. After culturing for 3 hours, the medium was removed and the cells were treated with DMSO. Then, fluorescence was measured at 540 nm.
# Afterwards, 3-[4,5-dimethylthiazol-2-yl]-2,5-diphenyltetrazolium bromide (MTT) assay, which allows observation of cell proliferation by fluorescence, was performed to confirm the optimal concentration of the fusion peptide 4 in the HUVEC cells.
Substance,"GFP fluorescence signal (area of GFP fluorescence relative to the total area per cell), SPLICS (Hela cells)",body weight (ApoE knockout mice),cell proliferation (MTT) (HUVEC cells)
YARVRRRGPRR-DTETKME (YARVRRRGPRRDTETKME) [fusion peptide 3],significant decrease in fluorescence signals,–,–
YARVRRRGPRR-FSTAADGQTQ (YARVRRRGPRRFSTAADGQTQ) [fusion peptide 1],significant decrease in fluorescence signals,–,–
"YARVRRRGPRR-GGG-FSTAADGQTQ (YARVRRRGPRRGGGFSTAADGQTQ) [fusion peptide 2, CPP Hph-1 linked to Peptide 2 (GGG-…), GRP75 motif]",significant decrease in fluorescence signals,–,–
"YARVRRRGPRRRSIYYLGIGPT [fusion peptide 4, YARVRRRGPRR-RSIYYLGIGPT]",–,did not affect the body weight,no inhibition of cell proliferation was observed even at concentrations of 100-200 μM
